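Test compounds were applied to cells in 96-well plates for 48 hours at 5 doses. The concentration for 50% growth inhibition is given as GI50.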 The source made the active and inactive calls. No stated cut-off is given here; in the data, active = GI50 up to about 1.1 µM and inactive = higher.
Assays:
Assay in all cases: growth of human tumour cells (NCI), 48 h
[1] = tested on: ACHN
[2] = tested on: KM12
[3] = tested on: COLO 205
[4] = tested on: OVCAR-3
[5] = tested on: SW-620
[6] = tested on: SF-268
[7] = tested on: SR
[8] = tested on: MDA-MB-231
[9] = tested on: SK-OV-3
[10] = tested on: OVCAR-8
[11] = tested on: 786-0
[12] = tested on: NCI/ADR-RES
[13] = tested on: NCI-H23
[14] = tested on: OVCAR-5
[15] = tested on: MDA-MB-435
[16] = tested on: UO-31
[17] = tested on: MCF7
[18] = tested on: NCI-H460
[19] = tested on: HCT-116
[20] = tested on: NCI-H522
[21] = tested on: U-251
[22] = tested on: CCRF-CEM
[23] = tested on: RPMI-8226
[24] = tested on: CAKI-1
[25] = tested on: NCI-H226
[26] = tested on: MOLT-4
[27] = tested on: UACC-257
[28] = tested on: Malme-3M
[29] = tested on: T47D
[30] = tested on: HCC 2998
[31] = tested on: HCT-15
[32] = tested on: IGROV-1
[33] = tested on: Hs-578T
[34] = tested on: EKVX
[35] = tested on: HT-29
[36] = tested on: SNB-75
[37] = tested on: K562
[38] = tested on: HOP-92
[39] = tested on: RXF 393
[40] = tested on: SF-295
[41] = tested on: TK-10
[42] = tested on: SN12C
[43] = tested on: SK-MEL-2
[44] = tested on: DU-145
[45] = tested on: SF-539
[46] = tested on: OVCAR-4
[47] = tested on: PC-3
[48] = tested on: BT-549
[49] = tested on: LOX IMVI
[50] = tested on: A498
[51] = tested on: HOP-62
[52] = tested on: MDA-N
[53] = tested on: SK-MEL-28
[54] = tested on: SK-MEL-5
[55] = tested on: M14
[56] = tested on: A549
[57] = tested on: UACC-62
[58] = tested on: SNB-19

## O=[N+]([O-])c1ccc(NN=C2c3ccccc3Cc3ccccc32)c([N+](=O)[O-])c1
[1]
  GI50: 17.7 µM (inactive)
[2]
  GI50: 2.98 µM (inactive)
[3]
  GI50: 4.52 µM (inactive)
[4]
  GI50: 2.39 µM (inactive)
[5]
  GI50: 5.85 µM (inactive)
[6]
  GI50: 14.3 µM (inactive)
[7]
  GI50: 2.07 µM (inactive)
[8]
  GI50: 24.4 µM (inactive)
[9]
  GI50: 7.74 µM (inactive)
[10]
  GI50: 45.8 µM (inactive)
[11]
  GI50: 10.9 µM (inactive)
[12]
  GI50: 4.82 µM (inactive)
[13]
  GI50: 15 µM (inactive)
[14]
  GI50: 12.3 µM (inactive)
[15]
  GI50: 1.79 µM (inactive)
[16]
  GI50: > 26.4 µM (inactive)
[17]
  GI50: 4.23 µM (inactive)
[18]
  GI50: 3.91 µM (inactive)
[19]
  GI50: 5.37 µM (inactive)
[20]
  GI50: 2.13 µM (inactive)
[21]
  GI50: 4.5 µM (inactive)
[22]
  GI50: 3.1 µM (inactive)
[23]
  GI50: 8.91 µM (inactive)
[24]
  GI50: 9.51 µM (inactive)
[25]
  GI50: 29.6 µM (inactive)
[26]
  GI50: 6.87 µM (inactive)
[27]
  GI50: 6.35 µM (inactive)
[28]
  GI50: 3.39 µM (inactive)
[29]
  GI50: 35.8 µM (inactive)
[30]
  GI50: 6.41 µM (inactive)
[31]
  GI50: 6.43 µM
[32]
  GI50: 4.97 µM (inactive)
[33]
  GI50: 4.07 µM (inactive)
[34]
  GI50: 5.37 µM (inactive)
[35]
  GI50: 2.88 µM (inactive)
[36]
  GI50: 4.59 µM (inactive)
[37]
  GI50: 4.32 µM (inactive)
[38]
  GI50: 20.8 µM (inactive)
[39]
  GI50: > 24.4 µM (inactive)
[40]
  GI50: 3.71 µM (inactive)
[41]
  GI50: > 100 µM (inactive)
[42]
  GI50: > 67.5 µM (inactive)
[43]
  GI50: 3.44 µM (inactive)
[44]
  GI50: > 30.4 µM (inactive)
[45]
  GI50: 8.79 µM (inactive)
[46]
  GI50: 13.3 µM (inactive)
[47]
  GI50: 4.95 µM (inactive)
[48]
  GI50: > 100 µM (inactive)
[49]
  GI50: 7.87 µM (inactive)
[50]
  GI50: > 92 µM (inactive)
[51]
  GI50: 6.92 µM (inactive)
[52]
  GI50: 1.88 µM (inactive)
[53]
  GI50: > 81.1 µM (inactive)
[54]
  GI50: 4.27 µM (inactive)
[55]
  GI50: 5.81 µM (inactive)
[56]
  GI50: > 21.1 µM (inactive)
[57]
  GI50: 5.38 µM (inactive)

## N#CCCN(CCC#N)c1ccc(C(=N/c2ccc(F)cc2)/N=N/c2ccccc2)cc1
[1]
  GI50: > 100 µM (inactive)
[2]
  GI50: 35.5 µM (inactive)
[3]
  GI50: > 100 µM (inactive)
[4]
  GI50: 95.3 µM (inactive)
[5]
  GI50: > 100 µM (inactive)
[6]
  GI50: > 100 µM (inactive)
[7]
  GI50: 33 µM (inactive)
[8]
  GI50: 82.6 µM (inactive)
[9]
  GI50: > 100 µM (inactive)
[10]
  GI50: > 100 µM (inactive)
[58]
  GI50: > 100 µM (inactive)
[11]
  GI50: > 100 µM (inactive)
[12]
  GI50: > 100 µM (inactive)
[13]
  GI50: 96.8 µM (inactive)
[14]
  GI50: > 100 µM (inactive)
[15]
  GI50: > 100 µM (inactive)
[16]
  GI50: > 100 µM (inactive)
[17]
  GI50: > 100 µM (inactive)
[18]
  GI50: 60.1 µM (inactive)
[19]
  GI50: > 100 µM (inactive)
[20]
  GI50: 21.7 µM (inactive)
[21]
  GI50: 50.9 µM (inactive)
[22]
  GI50: < 0.01 µM (active)
[23]
  GI50: > 100 µM (inactive)
[24]
  GI50: > 100 µM (inactive)
[25]
  GI50: > 100 µM (inactive)
[26]
  GI50: > 100 µM (inactive)
[27]
  GI50: 60.5 µM (inactive)
[29]
  GI50: 15.1 µM (inactive)
[30]
  GI50: > 100 µM (inactive)
[31]
  GI50: > 100 µM
[32]
  GI50: > 100 µM (inactive)
[33]
  GI50: > 100 µM (inactive)
[34]
  GI50: > 100 µM (inactive)
[35]
  GI50: > 100 µM (inactive)
[36]
  GI50: 57.5 µM (inactive)
[37]
  GI50: > 100 µM (inactive)
[38]
  GI50: > 100 µM (inactive)
[39]
  GI50: 2.67 µM (inactive)
[40]
  GI50: 32.8 µM (inactive)
[41]
  GI50: > 100 µM (inactive)
[42]
  GI50: > 100 µM (inactive)
[43]
  GI50: 93.3 µM (inactive)
[44]
  GI50: > 100 µM (inactive)
[45]
  GI50: > 100 µM (inactive)
[46]
  GI50: 93.5 µM (inactive)
[47]
  GI50: > 100 µM (inactive)
[48]
  GI50: 34 µM (inactive)
[50]
  GI50: > 100 µM (inactive)
[51]
  GI50: > 100 µM (inactive)
[52]
  GI50: > 100 µM (inactive)
[53]
  GI50: > 100 µM (inactive)
[54]
  GI50: 83.6 µM (inactive)
[55]
  GI50: > 100 µM (inactive)
[56]
  GI50: 37.8 µM (inactive)
[57]
  GI50: > 100 µM (inactive)

## O=c1[nH]nc(Cc2ccccc2)n1/N=C/c1ccccc1Cl
[1]
  GI50: > 100 µM (inactive)
[2]
  GI50: > 100 µM (inactive)
[3]
  GI50: > 100 µM (inactive)
[4]
  GI50: > 100 µM (inactive)
[5]
  GI50: > 100 µM (inactive)
[6]
  GI50: > 100 µM (inactive)
[7]
  GI50: > 100 µM (inactive)
[8]
  GI50: > 100 µM (inactive)
[9]
  GI50: > 100 µM (inactive)
[10]
  GI50: > 100 µM (inactive)
[58]
  GI50: > 100 µM (inactive)
[11]
  GI50: 41.1 µM (inactive)
[12]
  GI50: > 100 µM (inactive)
[13]
  GI50: > 100 µM (inactive)
[14]
  GI50: > 100 µM (inactive)
[15]
  GI50: > 100 µM (inactive)
[16]
  GI50: > 100 µM (inactive)
[17]
  GI50: > 100 µM (inactive)
[18]
  GI50: > 100 µM (inactive)
[19]
  GI50: > 100 µM (inactive)
[20]
  GI50: > 100 µM (inactive)
[21]
  GI50: 53.1 µM (inactive)
[23]
  GI50: > 100 µM (inactive)
[24]
  GI50: > 100 µM (inactive)
[25]
  GI50: > 100 µM (inactive)
[26]
  GI50: > 100 µM (inactive)
[27]
  GI50: > 100 µM (inactive)
[28]
  GI50: > 100 µM (inactive)
[29]
  GI50: > 100 µM (inactive)
[30]
  GI50: > 100 µM (inactive)
[31]
  GI50: > 100 µM
[32]
  GI50: > 100 µM (inactive)
[33]
  GI50: 43.4 µM (inactive)
[34]
  GI50: > 100 µM (inactive)
[35]
  GI50: > 100 µM (inactive)
[37]
  GI50: > 100 µM (inactive)
[38]
  GI50: 95.9 µM (inactive)
[39]
  GI50: 3.56 µM (inactive)
[40]
  GI50: 52.2 µM (inactive)
[41]
  GI50: > 100 µM (inactive)
[42]
  GI50: > 100 µM (inactive)
[43]
  GI50: > 100 µM (inactive)
[44]
  GI50: > 100 µM (inactive)
[45]
  GI50: > 100 µM (inactive)
[46]
  GI50: > 100 µM (inactive)
[47]
  GI50: > 100 µM (inactive)
[48]
  GI50: > 100 µM (inactive)
[49]
  GI50: > 100 µM (inactive)
[50]
  GI50: > 100 µM (inactive)
[52]
  GI50: > 100 µM (inactive)
[54]
  GI50: > 100 µM (inactive)
[56]
  GI50: > 100 µM (inactive)
[57]
  GI50: > 100 µM (inactive)

— ChEMBL document CHEMBL1201862, “PubChem BioAssay data set” (2004)
